Values of other authors as cited in patent publication US20090324709A1, “LIPOSOMAL FORMULATIONS” (Italfarmaco, S.A., priority 2004, published 2009).
Read-outs that look alike come from different tables or passages of the source. Values belong to the molecule of their own block, whether it stands above or below them.

Conditions: for release of 5-FU: DSPC liposomes, six hours after preparation; for retention of acyclovir: neutral egg PC:cholesterol 15:1 DRV liposomes; for retention of iododeoxyuridine: egg PC:cholesterol 15:1 DRV liposomes

Compound: O=c1[nH]cc(F)c(=O)[nH]1 [Example 5-FU, 5-fluorouracil]
release of 5-FU (25° C.): 10%
release of 5-FU (37° C.): 50%
5-FU that escapes (LUV DSPC liposomes, 60 minutes): more than 75%
escape of 5-FU (LUV SPC, SPC:Cholesterol (1:1), SPC:Cholate (84:16), in saturated 5-FU solution, after 50 minutes): more than 50%
release of the drug on eliminating the pH gradient (LUV liposomes actively charged through pH gradient (U.S. Pat. No. 6,083,530)): immediate
release of initially encapsulated 5-FU (SPC:Cholate liposomes in solution without 5-FU, after 5 minutes): 80%
5-FU initially encapsulated still inside the liposomes (multilamellar liposomes of sphingomyelin, cholesterol and dicetyl-phosphate, 40 hours at 25° C.): 20%
5-FU remaining inside (type A liposome soy lecithin:cholesterol hemisuccinate:cholesterol (10:1:4), 28 days at room temperature): 10%
5-FU released (type B liposomes DPPC:cholesterol hemisuccinate:cholesterol (10:1:4), 42 days at room temperature): 40%

Compound: Nc1nc2c(ncn2COCCO)c(=O)[nH]1 [acyclovir]
retention of acyclovir (24 hours at 37° C.): 48%
retention of acyclovir (14 days at 4° C.): 44%

Further lines, results first:

retention of floxuridine (MLV SM:CHOL:DCP 4.8:2.8:1, 40 hours at 25° C.): 70%
Compound: O=c1[nH]c(=O)n([C@H]2C[C@H](O)[C@@H](CO)O2)cc1F [floxuridine]

retention of iododeoxyuridine (24 hours at 4° C.): 50%
retention of iododeoxyuridine (one hour at 37° C.): 20%
Compound: O=c1[nH]c(=O)n([C@H]2C[C@H](O)[C@@H](CO)O2)cc1I [iododeoxyuridine]

methotrexate retention (EPC liposomes, MLV and REV, 30 days at 4° C.): 70%
methotrexate retention (EPC liposomes, MLV and REV, 30 days at 25° C.): 40%
methotrexate retention (EPC liposomes, MLV and REV, 30 days at 37° C.): < 10%
methotrexate retention (MLV HSPC:CHOL and HSPC:CHOL:DCP, 8 hours at 37° C.): 35%
Compound: CN(Cc1cnc2nc(N)nc(N)c2n1)c1ccc(C(=O)N[C@@H](CCC(=O)O)C(=O)O)cc1 [methotrexate]
